Laboratory results published in the NIST ThermoML archive (doi:10.1021/je800110r).
Numbers after ± are expanded uncertainties.

Conditions: 283.15 K, Liquid, Vibrating tube method

CCCCCCCCCC [decane]
Conditions	mass density [kg/m3]
7092 kPa	742.4 ± 2
7106 kPa	742.5 ± 2
7121 kPa	742.6 ± 2
7134 kPa	742.5 ± 2
7192 kPa	742.7 ± 2
7205 kPa	742.5 ± 2
7258 kPa	742.6 ± 2
7275 kPa	742.6 ± 2
7296 kPa	742.6 ± 2
7315 kPa	742.8 ± 2
7327 kPa	742.7 ± 2
7342 kPa	742.7 ± 2
7357 kPa	742.7 ± 2
7374 kPa	742.7 ± 2
7387 kPa	742.8 ± 2
7404 kPa	742.6 ± 2
7420 kPa	742.9 ± 2
7435 kPa	742.8 ± 2
7452 kPa	742.7 ± 2
7466 kPa	742.7 ± 2
7484 kPa	742.8 ± 2
7505 kPa	742.8 ± 2
7518 kPa	742.8 ± 2
7534 kPa	742.8 ± 2
7548 kPa	742.7 ± 2
7567 kPa	742.9 ± 2
7581 kPa	742.8 ± 2
7595 kPa	742.8 ± 2
7611 kPa	742.9 ± 2
7628 kPa	742.9 ± 2
7643 kPa	742.9 ± 2
7658 kPa	742.9 ± 2
7697 kPa	743.1 ± 2
7710 kPa	743 ± 2
7722 kPa	743 ± 2
7735 kPa	743 ± 2
7783 kPa	743 ± 2
7795 kPa	743 ± 2
7814 kPa	743.1 ± 2
7830 kPa	742.9 ± 2
7845 kPa	743.1 ± 2
7855 kPa	743 ± 2
7867 kPa	743.1 ± 2
7879 kPa	743.1 ± 2
7891 kPa	743.1 ± 2
7903 kPa	743.1 ± 2
7915 kPa	743 ± 2
7926 kPa	743.1 ± 2
7942 kPa	743.2 ± 2
7957 kPa	743.2 ± 2
7975 kPa	743.1 ± 2
7991 kPa	743 ± 2
8004 kPa	743.1 ± 2
8018 kPa	743.1 ± 2
8033 kPa	743.2 ± 2
8045 kPa	743.2 ± 2
8060 kPa	743.2 ± 2
8078 kPa	743.1 ± 2
8091 kPa	743.2 ± 2
8112 kPa	743.4 ± 2
8127 kPa	743.2 ± 2
8143 kPa	743.3 ± 2
8159 kPa	743.2 ± 2
8171 kPa	743.4 ± 2
8318 kPa	743.4 ± 2
8332 kPa	743.4 ± 2
8347 kPa	743.4 ± 2
8361 kPa	743.3 ± 2
8376 kPa	743.4 ± 2
8392 kPa	743.5 ± 2
8412 kPa	743.4 ± 2
8430 kPa	743.4 ± 2
8446 kPa	743.4 ± 2
8462 kPa	743.4 ± 2
8478 kPa	743.5 ± 2
8497 kPa	743.6 ± 2
8513 kPa	743.5 ± 2
8529 kPa	743.6 ± 2
8546 kPa	743.5 ± 2
8563 kPa	743.6 ± 2
8580 kPa	743.5 ± 2
8596 kPa	743.5 ± 2
8612 kPa	743.6 ± 2
8631 kPa	743.7 ± 2
8648 kPa	743.7 ± 2
8660 kPa	743.6 ± 2
8677 kPa	743.6 ± 2
8695 kPa	743.6 ± 2
8706 kPa	743.7 ± 2
8720 kPa	743.7 ± 2
8735 kPa	743.8 ± 2
8747 kPa	743.7 ± 2
8762 kPa	743.7 ± 2
8774 kPa	743.8 ± 2
8790 kPa	743.7 ± 2
8804 kPa	743.7 ± 2
8818 kPa	743.6 ± 2
8832 kPa	743.9 ± 2
8862 kPa	743.6 ± 2
8890 kPa	743.7 ± 2
9095 kPa	743.9 ± 2
9109 kPa	743.9 ± 2
9124 kPa	744 ± 2
9134 kPa	743.9 ± 2
9147 kPa	743.8 ± 2
9162 kPa	744 ± 2
9174 kPa	744 ± 2
9189 kPa	743.9 ± 2
9203 kPa	744.1 ± 2
9220 kPa	744 ± 2
9233 kPa	744.1 ± 2
9250 kPa	744.1 ± 2
9261 kPa	744 ± 2
9274 kPa	744.1 ± 2
9287 kPa	744 ± 2
9304 kPa	744 ± 2
9315 kPa	744 ± 2
9326 kPa	744.1 ± 2
9337 kPa	744.2 ± 2
9354 kPa	744.1 ± 2
9373 kPa	744.2 ± 2
9384 kPa	744.1 ± 2
9396 kPa	744.1 ± 2
9406 kPa	744.2 ± 2
9419 kPa	744.2 ± 2
9429 kPa	744.2 ± 2
9442 kPa	744 ± 2
9452 kPa	744.2 ± 2
9464 kPa	744.2 ± 2
9476 kPa	744.2 ± 2
9488 kPa	744.1 ± 2
9499 kPa	744.1 ± 2
9517 kPa	744.3 ± 2
9532 kPa	744.2 ± 2
9543 kPa	744.3 ± 2
9556 kPa	744.2 ± 2
9564 kPa	744.3 ± 2
9577 kPa	744.1 ± 2
9588 kPa	744.2 ± 2
9597 kPa	744.3 ± 2
9605 kPa	744.2 ± 2
9614 kPa	744.3 ± 2
9623 kPa	744.3 ± 2
9633 kPa	744.3 ± 2
9642 kPa	744.3 ± 2
9651 kPa	744.3 ± 2
9663 kPa	744.4 ± 2
9675 kPa	744.4 ± 2
9685 kPa	744.4 ± 2
9695 kPa	744.3 ± 2
9704 kPa	744.3 ± 2
9726 kPa	744.3 ± 2
9736 kPa	744.5 ± 2
9746 kPa	744.3 ± 2
9758 kPa	744.3 ± 2
9766 kPa	744.3 ± 2
9777 kPa	744.4 ± 2
9784 kPa	744.2 ± 2
9795 kPa	744.3 ± 2
9803 kPa	744.3 ± 2
9814 kPa	744.5 ± 2
9822 kPa	744.5 ± 2
9835 kPa	744.4 ± 2
9845 kPa	744.4 ± 2
9855 kPa	744.5 ± 2
9870 kPa	744.4 ± 2
9880 kPa	744.4 ± 2
9892 kPa	744.5 ± 2
9905 kPa	744.5 ± 2
9914 kPa	744.5 ± 2
9923 kPa	744.5 ± 2
9931 kPa	744.5 ± 2
9940 kPa	744.5 ± 2
9949 kPa	744.5 ± 2
9961 kPa	744.5 ± 2
9973 kPa	744.5 ± 2
9982 kPa	744.6 ± 2
9992 kPa	744.5 ± 2
10001 kPa	744.6 ± 2
10013 kPa	744.5 ± 2
10022 kPa	744.5 ± 2
10032 kPa	744.6 ± 2
10042 kPa	744.5 ± 2
10056 kPa	744.6 ± 2
10066 kPa	744.7 ± 2
10076 kPa	744.6 ± 2
10086 kPa	744.5 ± 2
10097 kPa	744.5 ± 2
10108 kPa	744.5 ± 2
10119 kPa	744.6 ± 2
10131 kPa	744.6 ± 2
10144 kPa	744.6 ± 2
10160 kPa	744.6 ± 2
10170 kPa	744.6 ± 2
10185 kPa	744.6 ± 2
10195 kPa	744.6 ± 2
10205 kPa	744.6 ± 2
10215 kPa	744.7 ± 2
10224 kPa	744.7 ± 2
10234 kPa	744.6 ± 2
10242 kPa	744.7 ± 2
10252 kPa	744.7 ± 2
10263 kPa	744.8 ± 2
10274 kPa	744.8 ± 2
10285 kPa	744.6 ± 2
10295 kPa	744.7 ± 2
10305 kPa	744.7 ± 2
10317 kPa	744.7 ± 2
10331 kPa	744.7 ± 2
10342 kPa	744.8 ± 2
10353 kPa	744.7 ± 2
10374 kPa	744.8 ± 2
10384 kPa	744.8 ± 2
10397 kPa	744.8 ± 2
10407 kPa	744.8 ± 2
10445 kPa	744.8 ± 2
10457 kPa	745 ± 2
10500 kPa	744.9 ± 2
10514 kPa	744.9 ± 2
10540 kPa	744.9 ± 2
10683 kPa	745 ± 2
10698 kPa	745.1 ± 2
10709 kPa	745 ± 2
10720 kPa	745.1 ± 2
10735 kPa	745.1 ± 2
10744 kPa	745 ± 2
10761 kPa	745 ± 2
10780 kPa	745 ± 2
10791 kPa	745.2 ± 2
10802 kPa	745.1 ± 2
10816 kPa	745.1 ± 2
10830 kPa	745 ± 2
10841 kPa	745.1 ± 2
10852 kPa	745.2 ± 2
10867 kPa	745.1 ± 2
10880 kPa	745.2 ± 2
10894 kPa	745.2 ± 2
10907 kPa	745.1 ± 2
10924 kPa	745.1 ± 2
10938 kPa	745.2 ± 2
10953 kPa	745.3 ± 2
10965 kPa	745.2 ± 2
10983 kPa	745.2 ± 2
11010 kPa	745.1 ± 2
11026 kPa	745.2 ± 2
11036 kPa	745.2 ± 2
11049 kPa	745.3 ± 2
11068 kPa	745.2 ± 2
11079 kPa	745.3 ± 2
11097 kPa	745.2 ± 2
11109 kPa	745.3 ± 2
11124 kPa	745.3 ± 2
11134 kPa	745.3 ± 2
11149 kPa	745.3 ± 2
11159 kPa	745.2 ± 2
11173 kPa	745.3 ± 2
11183 kPa	745.5 ± 2
11197 kPa	745.3 ± 2
11207 kPa	745.3 ± 2
11227 kPa	745.3 ± 2
11242 kPa	745.4 ± 2
11258 kPa	745.5 ± 2
11268 kPa	745.4 ± 2
11284 kPa	745.4 ± 2
11299 kPa	745.5 ± 2
11309 kPa	745.4 ± 2
11322 kPa	745.4 ± 2
11339 kPa	745.5 ± 2
11351 kPa	745.5 ± 2
11366 kPa	745.5 ± 2
11378 kPa	745.4 ± 2
11399 kPa	745.5 ± 2
11416 kPa	745.6 ± 2
